According to PubChem BioAssay AID2060626 (Molecular Pharmacology Branch, DTP, NCI, 2025):
pIC50: −log10 of the molar value.

Tested on: 168753-222-R-J1-PDC complex spheroid viability
Experiment: Anticancer human tumor 168753-222-R-J1-PDC patient-derived bladder carcinoma cell line growth inhibition [CLK]
Settings: for pIC50: curve of first compound; for viability, T/C: stronger effect = lower value; active means viability on the fitted dose curve at most 10% of control; inactive means the rest
How it was run: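 Multi-cell-type spheroids combined patient-derived tumor cells with HUVEC endothelial cells and human mesenchymal stem cells. Paired agents were dosed in half-log steps down from about clinical Cmax, or from 10 microM where Cmax was unknown.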
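Further: viability measured after seven days of drug exposure.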
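Wherever viability, T/C is given: luminescence signal used as surrogate for viable cell amount; 100% = DMSO vehicle control wells.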

NC(=O)C(=Cn1cnc(-c2cc(C(F)(F)F)cc(C(F)(F)F)c2)n1)c1cncnc1 + CNC(=O)c1ccc(Nc2nc(OC3CCCC3)c3c(-c4ccc5nc(C)oc5c4)c[nH]c3n2)c(OC)c1
< 5.52: pIC50 (second compound 0.0316 µM)
6.85: pIC50 (second compound 0.316 µM)
7.97: pIC50 (second compound 1 µM)
active: viability, T/C (second compound 1 µM, first compound 0.3 µM) 9.95% | viability, T/C (second compound 1 µM, first compound 0.949 µM) 2.29% | viability, T/C (second compound 1 µM, first compound 3 µM) 11.6% | viability, T/C (second compound 3.16 µM, first compound 0.0949 µM) 11.7% | viability, T/C (second compound 3.16 µM, first compound 0.3 µM) 1.87% | viability, T/C (second compound 3.16 µM, first compound 0.949 µM) 1.14% | viability, T/C (second compound 3.16 µM, first compound 3 µM) 3.62% | viability, T/C (second compound 10 µM, first compound 0.0949 µM) 8.71% | viability, T/C (second compound 10 µM, first compound 0.3 µM) 1.11% | viability, T/C (second compound 10 µM, first compound 0.949 µM) 2.71% | viability, T/C (second compound 10 µM, first compound 3 µM) 1.28%
6.08: pIC50 (second compound 0.1 µM)
> 8.02: pIC50 (second compound 3.16 µM) | pIC50 (second compound 10 µM)
inactive: viability, T/C (second compound 0.0316 µM, first compound 0.00949 µM) 103% | viability, T/C (second compound 0.0316 µM, first compound 0.03 µM) 105% | viability, T/C (second compound 0.0316 µM, first compound 0.0949 µM) 69% | viability, T/C (second compound 0.0316 µM, first compound 0.3 µM) 83% | viability, T/C (second compound 0.0316 µM, first compound 0.949 µM) 72.6% | viability, T/C (second compound 0.0316 µM, first compound 3 µM) 48.9% | viability, T/C (second compound 0.1 µM, first compound 0.00949 µM) 105% | viability, T/C (second compound 0.1 µM, first compound 0.03 µM) 121% | viability, T/C (second compound 0.1 µM, first compound 0.0949 µM) 89.9% | viability, T/C (second compound 0.1 µM, first compound 0.3 µM) 59.7% | viability, T/C (second compound 0.1 µM, first compound 0.949 µM) 58.3% | viability, T/C (second compound 0.1 µM, first compound 3 µM) 21.5% | viability, T/C (second compound 0.316 µM, first compound 0.00949 µM) 72.7% | viability, T/C (second compound 0.316 µM, first compound 0.03 µM) 73.5% | viability, T/C (second compound 0.316 µM, first compound 0.0949 µM) 61.8% | viability, T/C (second compound 0.316 µM, first compound 0.3 µM) 28% | viability, T/C (second compound 0.316 µM, first compound 0.949 µM) 23.1% | viability, T/C (second compound 0.316 µM, first compound 3 µM) 21.4% | viability, T/C (second compound 1 µM, first compound 0.00949 µM) 51.8% | viability, T/C (second compound 1 µM, first compound 0.03 µM) 33.7% | viability, T/C (second compound 1 µM, first compound 0.0949 µM) 14.7% | viability, T/C (second compound 3.16 µM, first compound 0.00949 µM) 23.3% | viability, T/C (second compound 3.16 µM, first compound 0.03 µM) 14.8% | viability, T/C (second compound 10 µM, first compound 0.00949 µM) 15.3% | viability, T/C (second compound 10 µM, first compound 0.03 µM) 13.7%

Nc1ccccc1NC(=O)c1ccc(CNC(=O)OCc2cccnc2)cc1 + CNC(=O)c1ccc(Nc2nc(OC3CCCC3)c3c(-c4ccc5nc(C)oc5c4)c[nH]c3n2)c(OC)c1
5.26: pIC50 (second compound 0.1 µM)
inactive: viability, T/C (second compound 0.0316 µM, first compound 0.0316 µM) 99.1% | viability, T/C (second compound 0.0316 µM, first compound 0.1 µM) 101% | viability, T/C (second compound 0.0316 µM, first compound 0.316 µM) 90.6% | viability, T/C (second compound 0.0316 µM, first compound 1 µM) 90.6% | viability, T/C (second compound 0.0316 µM, first compound 3.16 µM) 84.4% | viability, T/C (second compound 0.0316 µM, first compound 10 µM) 21.6% | viability, T/C (second compound 0.1 µM, first compound 0.0316 µM) 98.8% | viability, T/C (second compound 0.1 µM, first compound 0.1 µM) 84.8% | viability, T/C (second compound 0.1 µM, first compound 0.316 µM) 85.8% | viability, T/C (second compound 0.1 µM, first compound 1 µM) 82.9% | viability, T/C (second compound 0.1 µM, first compound 3.16 µM) 81.2% | viability, T/C (second compound 0.1 µM, first compound 10 µM) 15.4% | viability, T/C (second compound 0.316 µM, first compound 0.0316 µM) 80% | viability, T/C (second compound 0.316 µM, first compound 0.1 µM) 68.7% | viability, T/C (second compound 0.316 µM, first compound 0.316 µM) 62.2% | viability, T/C (second compound 0.316 µM, first compound 1 µM) 78.3% | viability, T/C (second compound 0.316 µM, first compound 3.16 µM) 63.1% | viability, T/C (second compound 1 µM, first compound 0.0316 µM) 33.9% | viability, T/C (second compound 1 µM, first compound 0.1 µM) 39% | viability, T/C (second compound 1 µM, first compound 0.316 µM) 36.5% | viability, T/C (second compound 1 µM, first compound 1 µM) 41.4% | viability, T/C (second compound 1 µM, first compound 3.16 µM) 44.7% | viability, T/C (second compound 3.16 µM, first compound 0.0316 µM) 27.1% | viability, T/C (second compound 3.16 µM, first compound 0.1 µM) 22.3% | viability, T/C (second compound 3.16 µM, first compound 0.316 µM) 29.8% | viability, T/C (second compound 3.16 µM, first compound 1 µM) 41.7% | viability, T/C (second compound 3.16 µM, first compound 3.16 µM) 25.7% | viability, T/C (second compound 3.16 µM, first compound 10 µM) 3.07% | viability, T/C (second compound 10 µM, first compound 0.0316 µM) 19.5% | viability, T/C (second compound 10 µM, first compound 0.1 µM) 21% | viability, T/C (second compound 10 µM, first compound 0.316 µM) 28.1% | viability, T/C (second compound 10 µM, first compound 1 µM) 27.5% | viability, T/C (second compound 10 µM, first compound 3.16 µM) 21.1% | viability, T/C (second compound 10 µM, first compound 10 µM) 0.71%
5.23: pIC50 (second compound 0.0316 µM)
> 7.50: pIC50 (second compound 1 µM) | pIC50 (second compound 3.16 µM) | pIC50 (second compound 10 µM)
5.39: pIC50 (second compound 0.316 µM)
active: viability, T/C (second compound 0.316 µM, first compound 10 µM) 6.28% | viability, T/C (second compound 1 µM, first compound 10 µM) 4.99%
